Results as given in patent US11672466B2, “System and method for modeling brain dynamics in normal and diseased states” (THE REGENTS OF THE UNIVERSITY OF CALIFORNIA, priority 2013, dated 2023).

Assays:
[1] = tested on: partial, tonic-clonic and generalized seizures; settings: clinically; cited from earlier work
[2] = tested on: MES, PTZ and amygdala-kindling seizure models; settings: systemic PTZ; cited from earlier work
APPL/S mice [3] = experiment: APP immunolabeling for dystrophic neurites, Thioflavin S staining for amyloid plaques in hippocampus; assay type: in vivo; settings: transgenic mouse model of AD, APPL/S mice given vehicle or LM11A-31
Method: (§1) FIG. 30A is a photomicrograph of APP immunolabeling for dystrophic neurites (left) and Thioflavin S staining for amyloid plaques (right) in hippocampus of APPL/S mice given vehicle or LM11A-31 as indicated. Scale bars=25 μm. FIG. 30B is a photomicrograph of choline acetyltransferase-immunostained basal forebrain sections. Treatment of APPL/S mice with LM11A-31 was associated with increased length, volume, and branching of cholinergic neurites. […] Statistical significance was determined using ANOVA and post-hoc Student-Neuman-Keuls testing.

APP/PS1 mice [4] = experiment: LTP / synaptic function in hippocampal slice preparations from AD model mice; set-up: species or system mouse; settings: hippocampus
APPL/S mice [5] = experiment: choline acetyltransferase immunostaining of cholinergic neurites in basal forebrain; assay type: in vivo, mouse; settings: basal forebrain sections
Method: as §1

[6] = after oral administration; cited from earlier work
APP/PS1 mice [7] = settings: slices derived from AD model mice; cited from earlier work
APPL/S mice [8] = experiment: novel object recognition; assay type: in vivo, mouse
APPL/S mice [9] = settings: APPL/S transgenic AD mouse model; cited from earlier work
[10] = tested on: APPL/S transgenic AD mouse model; settings: cited from earlier work
APPL/S mice [11] = settings: basal forebrain and hippocampus; cited from earlier work
APPL/S mice [12] = settings: APPL/S transgenic AD mouse model; cited from earlier work; remark: listed apart in the source
[13] = tested on: amyloid-P-induced neurodegenerative mechanisms; settings: previous in vitro studies; cited from earlier work
PTZ seizures = settings: prior studies; cited from earlier work

O=C1Nc2ccc(Cl)cc2C(c2ccccc2Cl)=NC1O (stereo not drawn) [lorazepam]
clinical efficacy by seizure type [1]: efficacy in partial and generalized tonic-clonic seizures | efficacy in conventional epilepsy models [2]: efficacy in all three conventional models

O=C1NC(=O)C(c2ccccc2)(c2ccccc2)N1 [PHT, phenytoin]
clinical efficacy by seizure type [1]: efficacy in partial and generalized tonic-clonic seizures

CC[C@H](C)[C@H](N)C(=O)NCCN1CCOCC1 [LM11A-31]
dystrophic neurites and amyloid plaque formation in the hippocampus (APPL/S mice [3]): rescued significantly | LTP (APP/PS1 mice [4]): normalizes | length, volume, and branching of cholinergic neurites (APPL/S mice [5]): increased | brain concentrations [6]: reach brain concentrations known to provide neuroprotection in vitro | crossing of the blood brain barrier [6]: cross the blood brain barrier | synaptic impairment in hippocampal slice preparations (APP/PS1 mice [7]): reversed | object recognition deficits (APPL/S mice [8]): prevented | amyloid levels (APPL/S mice [9]): without affecting | deficits in Y-maze performance [10]: prevented deficits | cholinergic neuritic dystrophy (APPL/S mice [11]): prevented | deficits in novel object recognition (APPL/S mice [12]): prevented deficits | amyloid-P-induced neurodegenerative mechanisms [13]: prevented

CC[C@@H](C(N)=O)N1CCCC1=O [LEV, levetiracetam]
clinical efficacy by seizure type [1]: efficacy for partial, tonic-clonic and non-convulsive generalized seizures | efficacy in conventional epilepsy models [2]: efficacy only in amygdala-kindling

CC[C@@H](CO)NC(=O)[C@@H]1C=C2c3cccc4c3c(cn4C)C[C@H]2N(C)C1 [methylsergide]
effect on the beneficial effect of ANT electrical stimulation to raise threshold for PTZ seizures (PTZ seizures): largely blocked
